Measurements taken from patent US9248217B2, “Nanoparticle coating of surfaces” (Nanocopocia, LLC, priority 2006, dated 2016).

Experiments:
[1] = SEM imaging of drug particles on hydrogel; type: physicochemical; conditions: SEM at 20,000x magnification
Experimental: For initial feasibility spray examples, griseofulvin (0.09023 g), a poorly water soluble antifungal agent, was dissolved in a mixture of ethanol (9 ml) and acetone (6 ml). A hydrogel sample, approximately 5 mm in largest diameter, removed from a borate buffer solution and placed on a metallic spray platform beneath the ElectroNanospray device's dual capillary spray head. The solution was sprayed in the cone jet mode at 4.17 kV at 5 μl/min and a distance of 15.6 mm from the hydrogel. Spray time was 20 minutes. The surface pattern seen in the SEM image shown in FIGS. 39A and 39B show a uniform, closely packed surface of approximately 200 nm particles at 20,000× magnification.

[2] = HPLC retention time of eluted peptide before and after ElectroNanospray (structural integrity); type: physicochemical; conditions: sprayed in aqueous solution onto stents and stainless steel plates
Experimental: General HPLC methods to quantify dexamethasone (DXM) and three peptides (luteinizing hormone releasing hormone (human; LHRH), angiotensin I, and insulin chain B) were developed using an HP 1090 system equipped with a narrowbore column (Zorbax SB C-18, 2.1 mm i.d.×150 mm, 3.5 μm) and UV detector. Data integration and processing were performed with Agilent ChemStation software (Rev. A.08.03). Peak areas were obtained by subtracting the baseline (from a “blank” injection of the sample matrix) from the experimental chromatogram. DXM was analyzed with the following method: 20/80 to 100/0 to 20/80 acetonitrile/water in 3 min and 3.01 min at 0.6 mL/min, end run at 6 min; 65° C.; 10 μL injection volume. DXM, which was detected at 243 nm, eluted at 2.27 min. The calibration curve for DXM (obtained from Alexis Biochemicals) generated with seven standard concentrations ranging from 0.5 to 30 μg/ml in acetonitrile was adequately linear (R^2=0.9999) and the limit of quantification (LOQ) was 0.5 μg/ml. The peptides (all obtained from Sigma-Aldrich) were analyzed with the following method: 20/80 to 50/50 to 20/80 acetonitrile/water buffered with 0.1% (v/v) perchloric acid in 5 min and 5.01 min at 0.4 mL/min, end run at 9 min; 65° C.; 10 μL injection volume; 210 nm detection wavelength. The retention of the peptides was measured before and after the ElectroNanospray process described earlier. LHRH eluted at 2.61 min, angiotensin I eluted at 3.54 min, and insulin B chain eluted at 4.71 min. Calibration curves for the peptides were obtained using five standard concentrations ranging from 1.25 to 50 μg/ml in a solution of 10 mM perchloric acid in water. The LOD for LHRH, angiotensin I and insulin chain B were 0.19, 0.25 and 0.34 μg/ml, respectively. System suitability and injection reproducibility tests were satisfactory.
We identified and sourced three readily available peptides of varying chain length, LHRH, angiotensin I, and insulin B chain. These were sprayed in aqueous solution onto both stents and stainless steel plates. […]

| particle size on hydrogel surface [1] | Molecule | HPLC retention time after spraying compared to before spraying [2] |
| --- | --- | --- |
| approximately 200 nm | COC1=CC(=O)C[C@@H](C)[C@]12Oc1c(Cl)c(OC)cc(OC)c1C2=O [griseofulvin] |  |
|  | angiotensin I (DRVYIHPFHL; Angiotensin-1; UniProt P01019 25-34, looked up) [model peptide obtained from Sigma-Aldrich] | unchanged |
|  | Luteinizing hormone releasing hormone [LHRH] | unchanged |
|  | insulin B chain | unchanged |
